In article PMC12525867, “Aromaticity Tuning in Biaryl Monophosphines and Their Derivatives” (Molecules, 2025):
In brackets after ≈: the same amount, converted by molar mass. Like-named read-outs stand apart in the source and are kept apart here.

Experiments:
[1] = tested on: P. mirabilis ATCC 12453; experiment: Antibacterial screening, broth microdilution (MIC/MBC); assay type: cell-based, Proteus mirabilis; conditions: for MIC: P. mirabilis ATCC 12453, MHB, 24 h, 35 °C
Protocol: (§1) The antimicrobial activities of a series of compounds 1–5 were tested through the utilization of seven reference species, encompassing both Gram-positive (Staphylococcus aureus ATCC 29213, Staphylococcus epidermidis ATCC 12228, Micrococcus luteus ATCC 10240) and Gram-negative (Escherichia coli ATCC 25922, Klebsiella pneumoniae ATCC 13883, Proteus mirabilis ATCC 12453, Acinetobacter baumannii ATCC 19606) bacteria as model microorganisms. For this purpose, microbial suspensions were prepared in sterile saline (0.85% NaCl) with an optical density of 0.5 McFarland standard, yielding a concentration of 150 × 10^6 CFU/mL (CFU, colony-forming units). All of the stock solutions of the tested compounds were dissolved in DMSO. Amoxicillin (Glentham Life Sciences Ltd., Corsham, UK) was used as a positive control.
(§2) The MIC values of the tested compounds were determined by serial twofold dilutions of 1–5 in Mueller Hinton Broth (MHB, Biomaxima, Lublin, Poland). The range of final 1–5 concentrations used was from 0.49 up to 1000 μg/mL, and for amoxicillin from 0.12 up to 250 μg/mL in the 96-well microtiter plates (Medlab, Raszyn, Poland), starting with 98 μL MHB and 2 μL bacterial inoculum added to each well. Positive controls consisted of 100 μL MHB in each well with the tested compounds at the same concentration range. The negative controls consisted of 100 μL of MHB only. Each set of tests and controls was established with three replicates. The microtiter plates were then subjected to an incubation period of 24 h at a temperature of 35 ± 2 °C. After incubation, the optical density of the microbial growth was measured at a wavelength of 600 nm using a microplate reader, the Biotek Elx800 (BioTek Instruments, Inc., Winooski, VT, USA). The MIC value was defined as the lowest concentration of the tested compound at which there was no visible growth of the tested microorganisms. The determination of the MIC values was achieved by employing the broth microdilution method, in accordance with the recommendations of the European Committee on Antimicrobial Susceptibility Testing (EUCAST). […] Then, the MHA plates were incubated overnight at 35 ± 2 °C. […] The MIC and MBC values were reported in μg/mL, according to the EUCAST reference.

[2] = tested on: E. coli ATCC 25922; experiment: as above; assay type: cell-based, Escherichia coli; conditions: for MIC: E. coli ATCC 25922, MHB, 24 h, 35 °C
Protocol: as §1, §2

[3] = tested on: M. luteus ATCC 10240; experiment: as above; assay type: cell-based, Micrococcus luteus; conditions: for MIC: ATCC10240, 24 h, M. luteus ATCC 10240, MHB, 24 h, 35 °C; for MBC: M. luteus ATCC 10240
Protocol: as §1, §2

[4] = tested on: A. baumannii ATCC 19606; experiment: as above; assay type: cell-based, Acinetobacter baumannii; conditions: for MIC: A. baumannii ATCC 19606, MHB, 24 h, 35 °C
Protocol: as §1, §2

[5] = tested on: K. pneumoniae ATCC 13883; experiment: as above; assay type: cell-based, Klebsiella pneumoniae; conditions: for MIC: K. pneumoniae ATCC 13883, MHB, 24 h, 35 °C
Protocol: as §1, §2

[6] = tested on: S. aureus ATCC 29213; experiment: as above; assay type: cell-based, Staphylococcus aureus; conditions: for MIC: S. aureus ATCC 29213, MHB, 24 h, 35 °C; for MBC: S. aureus ATCC 29213
Protocol: as §1, §2

[7] = tested on: S. epidermidis ATCC 12228; experiment: as above; assay type: cell-based, Staphylococcus epidermidis; conditions: for MIC: S. epidermidis ATCC 12228, MHB, 24 h, 35 °C
Protocol: as §1, §2

[8] = Cytotoxicity, microculture tetrazolium (MTT) test, H1HeLa; assay type: cell-based; conditions: human, H1HeLa cells (cervical adenocarcinoma, ATCC CRL-1958); H1HeLa (cervical adenocarcinoma), 24 h incubation, MTT; ± SD
Protocol: (§3) The cytotoxicity of biaryl monophosphines was tested in vitro in normal (VERO) and cancer-derived (H1HeLa) cells after 24 h of incubation using a microculture tetrazolium test. Table 2 presents the CC50 (concentrations decreasing the cellular viability by 50%) values calculated from dose–response cytotoxicity curves (Figure 4).
(§4) Cytotoxicity was evaluated using a microculture tetrazolium test as previously described, and details can be found in the Supplementary Materials. The cell lines used in the presented study were acquired from the American Type Culture Collection (ATCC); the one used for cytotoxicity testing included non-cancerous VERO (kidney; ATCC CCL-81) cells and cancer-originating H1HeLa (cervical adenocarcinoma; ATCC CRL-1958) cells. VERO cells were cultured in Dulbecco’s Modified Eagle’s Medium (DMEM; Corning, Tewksbury, MA, USA), while Eagle’s Minimum Essential Medium (MEM; Corning) was used for H1HeLa. Antibiotics (penicillin–streptomycin solution, Corning) and fetal bovine serum (FBS, Corning) were added to cell media. Cells were incubated in a 5% CO2 atmosphere at 37 °C (CO2 incubator, Panasonic Healthcare Co., Tokyo, Japan). Briefly, the monolayers of VERO or H1HeLa cells in 96-well plates (Falcon, Corning) were treated with serial dilutions of selected compounds for 24 h. After this, the medium was removed, the plates were washed with phosphate buffered saline (PBS; Corning), a 10% solution of (3-(4,5-dimethylthiazol-2-yl)-2,5-diphenyltetrazolium bromide (MTT; Sigma-Aldrich, St. Louis, MO, USA) (5 mg/mL) in FBS-free cell media was added, and the incubation continued for the next 4 h. Subsequently, the precipitated formazan crystals were dissolved, and after overnight incubation at 37 °C, the Synergy H1 Multi-Mode Microplate Reader (BioTek Instruments, Inc., Winooski, VT, USA) with Gen5 software (ver. 3.09.07; BioTek Instruments, Inc.) was used for absorbance acquisition (540 and 620 nm). Data was exported to GraphPad Prism (ver. 10) to calculate the CC50 values (50% cytotoxic concentration) from dose–response curves.
(§5) Aromaticity Tuning in Biaryl Monophosphines and Their Derivatives […]
(§6) Cell line maintenance and in vitro experiments
(§7) The cytotoxicity of selected biaryl monophosphines was evaluated in vitro towards normal VERO (ATCC, CCL-81) cells and cancer-derived cell line H1HeLa (cervical adenocarcinoma; ATCC (American Type Culture Collection) CRL-1958) using 3-(4,5-dimethylthiazol-2-yl)-2,5-diphenylte-trazolium bromide (MTT) based protocol.
(§8) Media used for in vitro culturing included Dulbecco's Modified Eagle's Medium (DMEM, Corning, Tewksbury, MA, USA) used for VERO cells and Modified Eagle Medium (MEM, Corning) used for H1HeLa. Cell media used in the experiments were supplemented with antibiotics (Penicil-lin-Streptomycin Solution, Corning) and fetal bovine serum (FBS, Corning) – 10% (cell passaging) and 2% (cell maintenance and experiments). Phosphate-buffered saline (PBS) and trypsin were bought from Corning, whereas MTT (3-(4,5-dimethylthiazol-2-yl)-2,5-diphenyltetrazolium bromide) from Sigma (Sigma-Aldrich, St. Louis, MO, USA). SDS was purchased from PanReac Applichem (Darmstadt, Germany). Incubation was carried out in a 5% CO2 atmosphere at 37°C (CO2 incubator, Panasonic Healthcare Co., Tokyo, Japan).
(§9) Concentrations of cells for passaging were as follows: VERO – 1.5*10^5 cells/mL, H1HeLa – 2*10^5 cells/mL. Routine observations of cell cultures and experiments were carried out using an in-verted microscope (CKX41, Olympus Corporation, Tokyo, Japan) equipped with a ca mera (Moti-cam 3+, Motic, Hong Kong), and the results were recorded (Motic Images Plus 2.0, Motic).
(§10) Stock solutions of biaryl monophosphines were prepared by dissolving the samples in cell culture grade DMSO (PanReac Applichem).
(§11) Evaluation of cytotoxicity
(§12) Cytotoxicity was tested using an MTT-based protocol. The cells were passaged into 96-well plates (Falcon, TC-treated, Corning) and, after overnight incubation, treated with serial dilutions of […]

[9] = Cytotoxicity, microculture tetrazolium (MTT) test, VERO; assay type: cell-based; conditions: African green monkey, ATCC CCL-81; VERO (normal kidney cells), 24 h incubation, MTT; ± SD
Protocol: as §3, §4, §5, §6, §7, §8, §9, §10, §11, §12

[10] = tested on: H1HeLa cells; experiment: Cytotoxicity, microculture tetrazolium (MTT) test, H1HeLa; assay type: cell-based
Protocol: as §3, §4, §5, §6, §7, §8, §9, §10, §11, §12

[11] = tested on: VERO cells; experiment: Cytotoxicity, microculture tetrazolium (MTT) test, VERO; assay type: cell-based
Protocol: as §3, §4, §5, §6, §7, §8, §9, §10, §11, §12

[12] = Proteus mirabilis, ATCC12453, read-out: MIC
[13] = Escherichia coli, ATCC25922, read-out: MIC
[14] = Micrococcus luteus, ATCC10240, read-out: MBC
[15] = Acinetobacter baumannii, ATCC19606, read-out: MIC
[16] = Klebsiella pneumoniae, ATCC13883, read-out: MIC
[17] = Staphylococcus aureus, ATCC29213, read-out: MIC
[18] = Staphylococcus aureus, ATCC29213, read-out: MBC
[19] = Staphylococcus epidermidis, ATCC12228, read-out: MIC
[20] = Staphylococcus epidermidis, ATCC12228, S. epidermidis ATCC 12228, read-out: MBC

Compound | MIC [1, 12] [µg/mL] | MIC [2, 13] [µg/mL] | MIC ([3]; Micrococcus luteus) [µg/mL] | MBC [3, 14] [µg/mL] | MIC [4, 15] [µg/mL] | MIC [5, 16] [µg/mL] | MIC [6, 17] [µg/mL] | MBC [6, 18] [µg/mL] | MIC [7, 19] [µg/mL] | MBC [7, 20] [µg/mL] | other results
CC1(C)S[C@@H]2[C@H](NC(=O)[C@H](N)c3ccc(O)cc3)C(=O)N2[C@H]1C(=O)O [Amox, Amoxicillin, reference compound] | 0.49 (≈ 1.34 µM) | 3.91 (≈ 10.7 µM) | 31.2 (≈ 85.5 µM) | 31.2 (≈ 85.5 µM) | 125 (≈ 342 µM) | 250 (≈ 684 µM) | 0.98 (≈ 2.68 µM) | 0.98 (≈ 2.68 µM) | 31.2 (≈ 85.5 µM) | 31.2 (≈ 85.5 µM) | MBC ([1]; Proteus mirabilis, ATCC12453, P. mirabilis ATCC 12453): 0.49 µg/mL (≈ 1.34 µM); MBC ([2]; Escherichia coli, ATCC25922, E. coli ATCC 25922): 7.81 µg/mL (≈ 21.4 µM); MBC ([4]; Acinetobacter baumannii, ATCC19606, A. baumannii ATCC 19606): 125 µg/mL (≈ 342 µM); MBC ([5]; Klebsiella pneumoniae, ATCC13883, K. pneumoniae ATCC 13883): 250 µg/mL (≈ 684 µM)
COc1ccccc1-c1c(P(=O)(C2CCCCC2)C2CCCCC2)c(O)c2ccccc2c1O [Compound 4, 2-(Dicyclohexylphosphoryl)-3-(2-methoxyphenyl)naphthalene-1,4-diol] | 1000 (≈ 2090 µM) | 500 to 1000 (≈ 1040 to 2090 µM) | 15.6 to 31.2 (≈ 32.7 to 65.3 µM) | > 1000 | 1000 (≈ 2090 µM) | 500 (≈ 1040 µM) | 250 (≈ 522 µM) | > 1000 | 500 (≈ 1040 µM) | > 1000 | CC50 at 24 h [8]: 5.53 ± 0.12 µg/mL; CC50 at 24 h [9]: 4.7 ± 0.41 µg/mL
Dicyclohexyl[1,4-dimethoxy-3-(2,4,6-trimethoxyphenyl)naphthalen-2-yl]phosphane [Compound 5] | – | – | – | – | – | – | – | – | – | – | CC50 [10]: 200.85 ± 13.08 µg/mL; CC50 [11]: 89.88 ± 4.11 µg/mL; MIC [1]: >1000 µg/mL; MIC [2]: >1000 µg/mL; MBC [3]: 125 µg/mL; MIC [4]: 1000 µg/mL; MIC [5]: >1000 µg/mL; MBC [6]: >1000 µg/mL; MIC [6]: 125 to 250 µg/mL; MBC ([7]; S. epidermidis ATCC 12228): 1000 µg/mL; type of activity (bactericidal or bacteriostatic) ([7]; S. epidermidis ATCC 12228): bactericidal; MIC [7]: 31.25 to 62.5 µg/mL
